# Measured values from ChEMBL document CHEMBL4411282, “Fragment-based drug discovery of triazole inhibitors to block PDEδ-RAS protein-protein interaction” (Eur J Med Chem, 2019).
# Test system: A549
# Test: Antiproliferative activity against human A549 cells harboring KRAS G12S point mutant after 72 hrs by SRB assay
# Details: A549, 72 h
row,IC50,Compound
1,> 50 µM,COc1ccc(CCc2nnc(-c3ccc(OC(C)(C)C(=O)Nc4cnn(C)c4)cc3)n2Cc2ccccc2)cc1
2,> 50 µM,COc1ccc(CCc2nnc(-c3ccc(OC(C)C(=O)Nc4cnn(C)c4)cc3)n2Cc2ccccc2)cc1 (stereo not drawn)
3,36 µM,COc1ccc(CSc2nnc(-c3ccc(OCC(=O)Nc4cnn(C)c4)cc3)n2Cc2ccccc2)cc1
4,6.4 µM,c1ccc(Cn2c(-c3ccc(OC[C@H](C4CCNCC4)n4c(-c5ccccc5)nc5ccccc54)cc3)nc3ccccc32)cc1
5,24.1 µM,COc1ccc(CCc2nnc(-c3ccc(OCC(=O)Nc4cnn(C)c4)cc3)n2Cc2ccccc2)cc1
6,17.1 µM,COc1ccc(CSc2nnc(-c3ccc(OCC(=O)Nc4ccc(N(C)C)cc4)cc3)n2Cc2ccccc2)cc1
7,10.3 µM,CC(C)Cc1nnc(SCc2ccc(C(=O)Nc3ccc4ncccc4c3)cc2)n1Cc1ccccc1
8,20.3 µM,CC(C)Cc1nnc(SCc2ccc(C(=O)Nc3cccc(F)c3)cc2)n1Cc1ccccc1
9,32.6 µM,CC(C)Cc1nnc(SCc2ccc(C(=O)NC3CCCCC3)cc2)n1Cc1ccccc1
10,18.3 µM,COc1ccc(CSc2nnc(-c3ccc(OCC(=O)Nc4cc(C)nn4C)cc3)n2Cc2ccccc2)cc1
11,> 50 µM,CCC(Oc1ccc(-c2nnc(CCc3ccc(OC)cc3)n2Cc2ccccc2)cc1)C(=O)Nc1cnn(C)c1 (stereo not drawn)
12,11.3 µM,COc1ccc(CSc2nnc(-c3ccc(OCC(=O)Nc4cccnc4)cc3)n2Cc2ccccc2)cc1
13,19.3 µM,COc1ccc(CSc2nnc(-c3ccc(OCC(=O)NC4CCCCC4)cc3)n2Cc2ccccc2)cc1
